From ChEMBL document CHEMBL1145870, “Triethylene tetraamine: a novel telomerase inhibitor” (Bioorg Med Chem Lett, 2003) come the findings set out here.

Each structure is given as a SMILES string. Values joined by “and” are separate entries in the source; they are usually repeats but may differ in a detail not shown here. Identical values can stand only once.

Assay [1] can be described thus: Dose required to inhibit HLF cells by 50 percent. The settings on record: Homo sapiens, read-out: LD50.
The next assay concerns HeLa. The experiment in a line: Inhibitory activity against HeLa cell line using 3-(4,5-dimethylthiazol-2-yl)-2,5-diphenyltetrazolium bromide (MTT, Sigma) assay.

The term IC50 denotes the concentration at which inhibition is half-maximal. A lower IC50 goes with inhibition by little substance.

As for `NCCNCCNCCN` [TRIENTINE], in assay [1], the CC50 amounted to 3100 µM. The IC50 in the assay with HeLa is 74.8 µM and 7.8 µM.
